{
  "source": "paper PMC7948460",
  "about": "“Volatile allosteric antagonists of mosquito odorant receptors inhibit human-host attraction” (The Journal of Biological Chemistry, 2020)",
  "key": {"[1]": {"tested_on": "Ae. albopictus", "test": "Repellence bioassay, human hand landing counts", "format": "in vivo, Aedes albopictus"}, "[2]": {"target": "T1, AgamORco (Anopheles gambiae, UniProt Q7QCC7)", "T1 sequence (Q7QCC7 1-478)": "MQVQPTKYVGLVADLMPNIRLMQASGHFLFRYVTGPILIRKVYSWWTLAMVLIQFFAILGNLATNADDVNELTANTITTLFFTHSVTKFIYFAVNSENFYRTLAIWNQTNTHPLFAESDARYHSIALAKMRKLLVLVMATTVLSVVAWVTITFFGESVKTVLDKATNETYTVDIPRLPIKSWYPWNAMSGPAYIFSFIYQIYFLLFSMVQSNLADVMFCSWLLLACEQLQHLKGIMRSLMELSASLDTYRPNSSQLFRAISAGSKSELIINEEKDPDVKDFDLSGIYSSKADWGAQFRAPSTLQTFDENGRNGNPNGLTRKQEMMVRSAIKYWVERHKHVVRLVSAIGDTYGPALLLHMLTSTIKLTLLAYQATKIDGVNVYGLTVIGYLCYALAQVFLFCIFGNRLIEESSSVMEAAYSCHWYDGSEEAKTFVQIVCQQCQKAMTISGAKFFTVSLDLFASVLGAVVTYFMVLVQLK", "test": "cell-based"}, "[3]": {"target": "T2, AaegORco (Aedes aegypti, UniProt Q178U6)", "T2 construct": "expressed in transfected cells; host or cells: Xenopus laevis oocytes microinjected with cRNA transcribed from the pSP64tRFA vector", "T2 sequence (Q178U6 1-478)": "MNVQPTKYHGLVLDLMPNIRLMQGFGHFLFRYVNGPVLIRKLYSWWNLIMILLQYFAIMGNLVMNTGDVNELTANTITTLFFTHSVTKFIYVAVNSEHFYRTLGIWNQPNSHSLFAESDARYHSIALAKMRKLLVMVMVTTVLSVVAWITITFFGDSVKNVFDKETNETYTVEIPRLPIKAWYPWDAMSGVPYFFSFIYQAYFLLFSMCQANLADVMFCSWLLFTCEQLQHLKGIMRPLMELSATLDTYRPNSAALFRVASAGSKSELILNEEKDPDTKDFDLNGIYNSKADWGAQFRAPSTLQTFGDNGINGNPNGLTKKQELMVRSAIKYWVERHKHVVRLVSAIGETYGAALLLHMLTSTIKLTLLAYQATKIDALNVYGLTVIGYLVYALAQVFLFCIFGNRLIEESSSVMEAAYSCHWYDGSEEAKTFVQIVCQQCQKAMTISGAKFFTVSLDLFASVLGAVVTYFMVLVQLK", "test": "Two-microelectrode voltage-clamp recordings of Xenopus laevis oocytes expressing AaegORco, VUAA1-induced currents", "format": "cell-based", "conditions": "200 μM VUAA1 with equimolar compound; for Normalized response (%) of AaegORco to VUAA1 in combination with compound: printed in picture Fig. 4B", "procedure": "Across all treatments, we observed a consistent increase in the third VUAA1-induced response relative to the first and second VUAA1 administrations (Fig. 4A). For this reason, the inhibition level (Fig. 4B) was calculated by normalizing the response amplitude elicited by the second stimulation, to the average current responses elicited by the first and last VUAA1 stimulations.\nIn vitro transcription and two-microelectrode voltage-clamp electrophysiological recordings were performed as described ([62]). Briefly, ORco of Ae. aegypti (AaegORco; GenBank: BK006142.1) was synthesized using the mMESSAGE mMACHINE SP6 kit (ThermoFisher Scientific) from the linearized pSP64tRFA expression vector. The harvested X. laevis oocytes were manually separated from the ovaries prior to collagenase treatment (8 mg/ml, 30 min, 18 °C) in order to remove the follicular layer. Stage V–VI oocytes were rinsed in washing solution (96 mM NaCl, 2 mM KCl, 5 mM MgCl2, and 5 mM Hepes, pH 7.6) and microinjected with a mixture of 1 μl AaegOrco (3 μg/μl) and 2 μl of double-distilled water. Injected oocytes were incubated at 18 °C for 3 days in Ringer’s solution (96 mM NaCl, 2 mM KCl, 5 mM MgCl2, 0.8 mM CaCl2, and 5 mM Hepes, pH 7.6) supplemented with 5% dialyzed horse serum, 50 μg/ml tetracycline, 100 μg/ml streptomycin, and 550 μg/ml sodium pyruvate. Whole-cell currents were recorded using the two-microelectrode voltage-clamp technique. During recording sessions, the holding potential was maintained at −80 mV using an OC-725C oocyte clamp (Warner Instruments, LLC). Oocytes were placed in a RC-3Z oocyte recording chamber (Warner Instruments) and exposed for 8 s to 200 μM VUAA1 (Innovapharm Ltd), 2,4-octadienal predominantly trans (Sigma-Aldrich), or carvacrol (Sigma-Aldrich). All compounds were solubilized in 200 μl of DMSO prior to the dilutions in the Ringer’s solution. Currents were allowed to return to baseline between odorant applications. Data acquisition and concentration–response analyses were carried out with a Digidata 1550A and the pCLAMP10 software (Molecular Devices). Statistical significance was evaluated with one-way ANOVA followed by Tukey's post test."}, "[4]": {"tested_on": "Bm5 cells", "test": "Toxicity to the AgamORco/Photina-expressing Bm5 cells during dose-response evaluation", "format": "cell-based", "conditions": "Bombyx mori, Bm5 cells stably expressing AgamORco and Photina"}, "[5]": {"conditions": "0.2 μL equivalent per cm^2, 5 min"}, "[6]": {"conditions": "0.01 μL equivalent per cm^2, 5 min"}, "[7]": {"conditions": "0.04 μL equivalent per cm^2, 5 min"}, "[8]": {"conditions": "50 μM ORcoRAM2 (OA), read-out: IC50 in binding competition assay"}, "[9]": {"conditions": "50 μM ORcoRAM2 (OA), read-out: pIC50 in binding competition assay (converted)"}, "[10]": {"conditions": "100 μM ORcoRAM2 (OA), read-out: IC50, inhibition of OA-dependent AgamORco channel activity"}, "[11]": {"conditions": "100 μM ORcoRAM2 (OA), read-out: pIC50, inhibition of OA-dependent AgamORco channel activity (converted)"}, "[12]": {"conditions": "150 μM ORcoRAM2 (OA), read-out: IC50 in binding competition assay"}, "[13]": {"conditions": "150 μM ORcoRAM2 (OA), read-out: pIC50 in binding competition assay (converted)"}},
  "note": "Where “and” joins values, the source holds several entries; their conditions need not be identical. Equal entries are not always repeated. Where two headings read alike, the source gives them in different places.",
  "data": [
    {"compound": "CC(C)OC(=O)C=Cc1ccccc1", "note": "[IPC, Isopropyl cinnamate, reference compound]", "values": [
      {"measurement": "Mean % repellency", "setting": "[1]; [5]", "result": "96 ± 1.6", "unit": "%"},
      {"measurement": "Average landings (+ st. dev)", "setting": "[1]; 0.2 μL per cm2, 5 min", "result": "2.1±0.8"}
    ]},
    {"compound": "CCc1ccc(NC(=O)CSc2nnc(-c3ccccn3)n2CC)cc1", "note": "[ORcoRAM2, reference compound]", "values": [
      {"measurement": "EC50", "setting": "[2]; absence of antagonist, read-out: EC50 of ORco agonist on AgamORco", "result": "91.3 µM and 91.9 µM and 91 µM"}
    ]},
    {"compound": "Cc1ccc(C(C)C)cc1O", "note": "[CRV, Carvacrol]", "values": [
      {"measurement": "Mean % repellency", "setting": "[1]; [6]", "result": "67.8% and 67.8 ± 9%"},
      {"measurement": "Average landings (+ st. dev)", "setting": "[1]; 0.01 μL per cm2, 5 min", "result": "17.6±4.9"},
      {"measurement": "Mean % repellency", "setting": "[1]; [7]", "result": "99.1 ± 2", "unit": "%"},
      {"measurement": "Average landings (+ st. dev)", "setting": "[1]; 0.04 μL per cm2, 5 min", "result": "0.5±1.1"},
      {"measurement": "Mean % repellency", "setting": "[1]; [5]", "result": "99.8 ± 0.7", "unit": "%"},
      {"measurement": "Average landings (+ st. dev)", "setting": "[1]; 0.2 μL per cm2, 5 min", "result": "0.1±0.4"},
      {"measurement": "Reduction of VUAA1-activated currents", "setting": "[3]", "result": "~85", "unit": "%"},
      {"measurement": "Normalized response (%) of AaegORco to VUAA1 in combination with compound", "setting": "[3]", "result": -84.8, "unit": "%"},
      {"measurement": "Concentrations toxic to the cells", "setting": "[4]", "result": "above 250 μM"},
      {"measurement": "IC50", "setting": "[2]; [8]", "result": 26.3, "unit": "µM"},
      {"measurement": "IC50", "setting": "[2]; [9]", "result": 26.3, "unit": "µM"},
      {"measurement": "IC50", "setting": "[2]; [10]", "result": 23.4, "unit": "µM"},
      {"measurement": "IC50", "setting": "[2]; [11]", "result": 23.3, "unit": "µM"},
      {"measurement": "IC50", "setting": "[2]; [12]", "result": 28.4, "unit": "µM"},
      {"measurement": "IC50", "setting": "[2]; [13]", "result": 28.4, "unit": "µM"}
    ]},
    {"compound": "C=CC(C)(CCC=C(C)C)OC(C)=O", "note": "(stereo not drawn) [LA, Linalyl acetate]", "values": [
      {"measurement": "Mean % repellency", "setting": "[1]; [5]", "result": "72.3 ± 15.6", "unit": "%"},
      {"measurement": "Average landings (+ st. dev)", "setting": "[1]; 0.2 μL per cm2, 5 min", "result": "14.6±8.1"}
    ]},
    {"compound": "CC(C)c1ccc(CO)cc1", "note": "[CA, Cumin alcohol]", "values": [
      {"measurement": "Mean % repellency", "setting": "[1]; [6]", "result": "63.2% and 63.2 ± 11.8%"},
      {"measurement": "Average landings (+ st. dev)", "setting": "[1]; 0.01 μL per cm2, 5 min", "result": "20.1±6.5"},
      {"measurement": "Mean % repellency", "setting": "[1]; [7]", "result": "78 ± 7", "unit": "%"},
      {"measurement": "Average landings (+ st. dev)", "setting": "[1]; 0.04 μL per cm2, 5 min", "result": "11.8±3.7"},
      {"measurement": "Mean % repellency", "setting": "[1]; [5]", "result": "99.8 ± 0.7", "unit": "%"},
      {"measurement": "Average landings (+ st. dev)", "setting": "[1]; 0.2 μL per cm2, 5 min", "result": "0.1±0.4"}
    ]},
    {"compound": "CCC/C=C/C=C/C=O", "note": "[OCT, (2E,4E)-2,4-Octadienal]", "values": [
      {"measurement": "Mean % repellency", "setting": "[1]; [6]", "result": "13.8% and 13.8 ± 12.8%"},
      {"measurement": "Average landings (+ st. dev)", "setting": "[1]; 0.01 μL per cm2, 5 min", "result": "47.1±7.0"},
      {"measurement": "Mean % repellency", "setting": "[1]; [7]", "result": "97.9 ± 2.7", "unit": "%"},
      {"measurement": "Average landings (+ st. dev)", "setting": "[1]; 0.04 μL per cm2, 5 min", "result": "1.1±1.5"},
      {"measurement": "Mean % repellency", "setting": "[1]; [5]", "result": "100 ± 0", "unit": "%"},
      {"measurement": "Average landings (+ st. dev)", "setting": "[1]; 0.2 μL per cm2, 5 min", "result": "0±0"},
      {"measurement": "Reduction of VUAA1-activated currents", "setting": "[3]", "result": "approximately 60%"},
      {"measurement": "Normalized response (%) of AaegORco to VUAA1 in combination with compound", "setting": "[3]", "result": -59.5, "unit": "%"},
      {"measurement": "IC50", "setting": "[2]; [8]", "result": 41.8, "unit": "µM"},
      {"measurement": "IC50", "setting": "[2]; [9]", "result": 41.8, "unit": "µM"},
      {"measurement": "IC50", "setting": "[2]; [10]", "result": 59.8, "unit": "µM"},
      {"measurement": "IC50", "setting": "[2]; [11]", "result": 59.8, "unit": "µM"},
      {"measurement": "IC50", "setting": "[2]; [12]", "result": 117, "unit": "µM"},
      {"measurement": "IC50", "setting": "[2]; [13]", "result": 117, "unit": "µM"}
    ]},
    {"compound": "CCN(CC)C(=O)c1cccc(C)c1", "note": "[DEET, N,N-Diethyl-3-methylbenzamide, reference compound]", "values": [
      {"measurement": "Mean % repellency", "setting": "[1]; [6]", "result": "96.7% and 96.7 ± 2.6%"},
      {"measurement": "Average landings (+ st. dev)", "setting": "[1]; 0.01 μL per cm2, 5 min", "result": "1.8±1.4"},
      {"measurement": "Mean % repellency", "setting": "[1]; [7]", "result": "100 ± 0", "unit": "%"},
      {"measurement": "Average landings (+ st. dev)", "setting": "[1]; 0.04 μL per cm2, 5 min", "result": "0±0"},
      {"measurement": "Mean % repellency", "setting": "[1]; [5]", "result": "100 ± 0", "unit": "%"},
      {"measurement": "Average landings (+ st. dev)", "setting": "[1]; 0.2 μL per cm2, 5 min", "result": "0±0"}
    ]},
    {"compound": "CC1=CCC2[C@H](C1)C2(C)C", "note": "(stereo partly drawn) [CAR, (1S)-3-Carene]", "values": [
      {"measurement": "Mean % repellency", "setting": "[1]; [5]", "result": "89.8 ± 4.3", "unit": "%"},
      {"measurement": "Average landings (+ st. dev)", "setting": "[1]; 0.2 μL per cm2, 5 min", "result": "5.4±2.3"}
    ]}
  ]
}
